{
  "source": "patent US6716883B1",
  "about": "“Composition useful to treat periodontal disease” (priority 1998, dated 2004)",
  "key": {"rat bone marrow cultures [1]": {"test_system": "rat bone marrow cultures", "test": "APA in rat bone marrow cultures treated with BaP", "format": "cell-based", "settings": "increasing concentrations of BaP, ten-day old cultures", "experimental": "In this experiment, the effects of the aryl hydrocarbon, benzo-a-pyrene (BaP) on the early events occurring during osteogenesis were determined. Ten-day old rat bone marrow cultures were treated with increasing concentrations of BaP. The effect of this treatment was monitored by APA as set out above."}, "rat bone marrow cultures [2]": {"test_system": "rat bone marrow cultures", "test": "Mineral levels in rat bone marrow cultures treated with BaP", "format": "cell-based", "settings": "BaP at 10^−8M"}},
  "data": [
    {"molecule": "c1ccc2c(c1)cc1ccc3cccc4ccc2c1c34", "note": "[BaP, benzo-a-pyrene, reference compound]", "values": [
      {"measurement": "inhibition of alkaline phosphatase", "setting": "rat bone marrow cultures [1]", "result": "increased inhibition of alkaline phosphatase with increasing BaP concentration"},
      {"measurement": "inhibition of mineral levels", "setting": "rat bone marrow cultures [2]", "result": "≤ 90", "unit": "%"}
    ]}
  ]
}
